According to patent US11096923B2, “Pharmaceutical composition containing polymyxin B/trimethoprim based therapeutics” (University of Rochester, priority 2016, dated 2021):

Tests used:
P. aeruginosa [1] = assay: MIC of clinical P. aeruginosa ocular isolates (antibiotic susceptibility profiles); assay type: cell-based, Pseudomonas aeruginosa; details: for MIC: Pseudomonas aeruginosa, read-out: Minimum Inhibitory Concentration
Excerpt: A series of genotyping and biological assays were used as a preliminary means to evaluate the clonality of clinical P. aeruginosa isolates collected, as follows. Genomic DNA was purified from each isolate using Qiagen DNeasy kits (Hilden, Germany) and used as a template for polymerase chain reactions to detect the presence of the virulence factors exoS, exoY, exoU, exoT, and perV using previously published primers (Table 1). See Allewelt M, Coleman F T, Grout M, Priebe G P, Pier G B. Acquisition of expression of the Pseudomonas aeruginosa ExoU cytotoxin leads to increased bacterial virulence in a murine model of acute pneumonia and systemic spread. Infection and immunity 2000; 68:3998-4004, Lomholt J A, Poulsen K, Kilian M. Epidemic population structure of Pseudomonas aeruginosa: evidence for a clone that is pathogenic to the eye and that has a distinct combination of virulence factors. Infection and immunity 2001; 69, and Ledbetter E C, Mun J J, Kowbel D, Fleiszig S M. Pathogenic phenotype and genotype of Pseudomonas aeruginosa isolates from spontaneous canine ocular infections. Investigative ophthalmology & visual science 2009; 50. […] See Institute C. Performance Standards for Antimicrobial Susceptibility Testing: Twenty-fifth Informational Supplement. Each isolate's ability to form biofilms was quantified. To do so, wells of a polystyrene plate containing 72-hour established biofilms were washed with 0.8% NaCl to remove non adherent cells and stained with crystal violet. To quantify biofilm staining, plates were washed 3 times with H2O, stain was suspended in 30% glacial acetic acid and the optical density (OD600nm) of each well was determined using an automated plate reader, as previously described. See Jacobs A C, Blanchard C E, Catherman S C, Dunman P M, Murata Y. An ribonuclease T2 family protein modulates Acinetobacter baumannii abiotic surface colonization. PloS one 2014; 9.

P. aeruginosa biofilm = system: P. aeruginosa biofilm; set-up: key: Killing (+) of established biofilms; details: established biofilms; adenylate kinase reporter; Blanchard et al., 2016; cited from earlier work
P. aeruginosa [2] = assay: Fractional inhibitory concentration, checkerboard MIC; assay type: cell-based, Pseudomonas aeruginosa
S. aureus = assay: as above; assay type: cell-based, Staphylococcus aureus; details: S. aureus UAMS-1
P. aeruginosa PAO1 = assay: Selleck library screen in presence of sub-inhibitory polymyxin B/trimethoprim; assay type: cell-based, Pseudomonas aeruginosa; set-up: key: Growth (+); no growth (−); details: for P. aeruginosa growth, 5 μM: drug 5 μM in presence of 0.2 μg ml^−1 polymyxin B/trimethoprim; for P. aeruginosa growth, 50 μM: drug 50 μM in presence of 0.2 μg ml^−1 polymyxin B/trimethoprim
Procedure: (§1) To identify agents that potentiate the antimicrobial activity of polymyxin B/trimethoprim we first determined the highest concentration of the polymyxin B/trimethoprim combination that allowed growth of P. aeruginosa strain PAO1 and S. aureus strain UAMS-1.
For Selleck library screening, individual wells of 96-well microtiter plates containing 88 μl of fresh media were inoculated with approximately 10^5 CFUs of P. aeruginosa strain PAO1 or S. aureus UAMS-1. Next, 2 μl of polymyxin B/trimethoprim was added to a final concentration of 0.2 μg ml^−1 or 1.25 μg ml^−1 for PA01 and UAMS-1, respectively. Library members were then added at either 5 μM or 50 μM final concentration. Plates were incubated at 37° C. for 16 hours and hits were identified as wells with no visible growth. […]

S. aureus UAMS-1 = assay: as above; assay type: cell-based, Staphylococcus aureus; set-up: key: Growth (+); no growth (−); details: for S. aureus growth, 5 μM: drug 5 μM in presence of 1.2 μg ml^−1 polymyxin B/trimethoprim; for S. aureus growth, 50 μM: drug 50 μM in presence of 1.2 μg ml^−1 polymyxin B/trimethoprim
Procedure: as §1
For Selleck library screening, individual wells of 96-well microtiter plates containing 88 μl of fresh media were inoculated with approximately 10^5 CFUs of P. aeruginosa strain PAO1 or S. aureus UAMS-1. Next, 2 μl of polymyxin B/trimethoprim was added to a final concentration of 0.2 μg ml^−1 or 1.25 μg ml^−1 for PA01 and UAMS-1, respectively. Library members were then added at either 5 μM or 50 μM final concentration. Plates were incubated at 37° C. for 16 hours and hits were identified as wells with no visible growth.
To do so, 10^5 CFUs of S. aureus strain UAMS-1 were inoculated in individual wells of a microtiter plate supplemented with 1.2 μg ml^−1 of polymyxin B/trimethoprim, (0.25×MIC). Library members were added at low (5 μM) or high (50 μM) concentrations and then scored for agents that inhibited growth following overnight incubation. Such agents were expected to represent compounds that display antimicrobial activity on their own and/or that potentiate the antimicrobial activity of polymyxin B/trimethoprim.

MRSA keratitis isolates = MRSA keratitis isolates collected between 1993 and 2012; cited from earlier work
[3] = P. aeruginosa ocular isolate RW01 (cornea)
[4] = P. aeruginosa ocular isolate RW02 (cornea)
[5] = P. aeruginosa ocular isolate RW03 (cornea)
[6] = P. aeruginosa ocular isolate RW04 (conjunctiva)
[7] = P. aeruginosa ocular isolate RW05 (cornea)
[8] = P. aeruginosa ocular isolate RW06 (cornea)
[9] = P. aeruginosa ocular isolate RW07 (cornea)

| Compound | P. aeruginosa biofilm AK Signal (P. aeruginosa biofilm) | P. aeruginosa growth, 5 μM (P. aeruginosa PAO1) | P. aeruginosa growth, 50 μM (P. aeruginosa PAO1) | S. aureus growth, 5 μM (S. aureus UAMS-1) | S. aureus growth, 50 μM (S. aureus UAMS-1) | also measured |
| --- | --- | --- | --- | --- | --- | --- |
| CC1(C)S[C@@H]2[C@H](NC(=O)[C@H](N)c3ccccc3)C(=O)N2[C@H]1C(=O)O [Ampicillin, ampicillin] |  |  |  |  |  | MIC (P. aeruginosa [1]; [3]): 50 µg/mL; MIC (P. aeruginosa [1]; [4]): 50 µg/mL; MIC (P. aeruginosa [1]; [5]): 50 µg/mL; MIC (P. aeruginosa [1]; [6]): 50 µg/mL; MIC (P. aeruginosa [1]; [7]): 100 µg/mL; MIC (P. aeruginosa [1]; [8]): 100 µg/mL; MIC (P. aeruginosa [1]; [9]): 50 µg/mL |
| N[C@@H]1CCCCN(c2c(F)cc3c(=O)c(C(=O)O)cn(C4CC4)c3c2Cl)C1 [Besifloxacin, besifloxacin] | + | − | − | − | − | MIC in combination (P. aeruginosa [2]; P. aeruginosa PAO1, PT combined with besifloxacin): 0.78 µg/mL; MIC (P. aeruginosa [2]; Pseudomonas aeruginosa, PAO1, P. aeruginosa PAO1): 1.56 µg/mL; MIC in combination (S. aureus; PT combined with besifloxacin): 0.06 µg/mL; MIC (S. aureus; Staphylococcus aureus): 0.12 µg/mL |
| CO/N=C(\C(=O)N[C@@H]1C(=O)N2C(C(=O)O)=C(CSc3nc(=O)c(=O)[nH]n3C)CS[C@H]12)c1csc(N)n1 [Ceftriaxone, ceftriaxone] |  |  |  |  |  | MIC (P. aeruginosa [1]; [3]): 13 µg/mL; MIC (P. aeruginosa [1]; [4]): 26 µg/mL; MIC (P. aeruginosa [1]; [5]): 26 µg/mL; MIC (P. aeruginosa [1]; [6]): 26 µg/mL; MIC (P. aeruginosa [1]; [7]): 13 µg/mL; MIC (P. aeruginosa [1]; [8]): 52 µg/mL; MIC (P. aeruginosa [1]; [9]): 26 µg/mL |
| NC1CCN(c2c(F)cc3c(=O)c(C(=O)O)cn(C4CC4)c3c2Cl)C1 (stereo not shown) [Clinafloxacin, clinafloxacin] | + | − | − | − | − |  |
| CN1C[C@@H]2C[C@H]1CN2c1cc2c(cc1F)c(=O)c(C(=O)O)cn2C1CC1 [Danofloxacin, danofloxacin] | + | − | − | − | − |  |
| CCN1CCN(c2cc3c(cc2F)c(=O)c(C(=O)O)cn3C2CC2)CC1 [Enrofloxacin, enrofloxacin] | + | − | − | − | − |  |
| C[C@H]1COc2c(N3CCN(C)CC3)c(F)cc3c(=O)c(C(=O)O)cn1c23 [Levofloxacin, levofloxacin] |  | − | − | + | − |  |
| CCn1cc(C(=O)O)c(=O)c2cc(F)c(N3CCNC(C)C3)c(F)c21 (stereo not shown) [Lomefloxacin, lomefloxacin] | + | − | − | − | − |  |
| CC1CCc2c(N3CCC(O)CC3)c(F)cc3c(=O)c(C(=O)O)cn1c23 (stereo not shown) [Nadifloxacin, nadifloxacin] | + | − | − | − | − |  |
| CCn1cc(C(=O)O)c(=O)c2cc(F)c(N3CCN(C)CC3)cc21 [Pefloxacin, pefloxacin] | + | − | − | − | − |  |
| CO[C@H]1/C=C/O[C@@]2(C)Oc3c(C)c(O)c4c(c3C2=O)C2=NC3(CCN(CC(C)C)CC3)NC2=C(NC(=O)/C(C)=C\C=C\[C@H](C)[C@H](O)[C@@H](C)[C@@H](O)[C@@H](C)[C@H](OC(C)=O)[C@@H]1C)C4=O [Rifabutin, rifabutin] | + | − | − | − | − |  |
| CO[C@H]1/C=C/O[C@@]2(C)Oc3c(C)c(O)c4c(O)c(c(/C=N/N5CCN(C6CCCC6)CC5)c(O)c4c3C2=O)NC(=O)/C(C)=C\C=C\[C@H](C)[C@H](O)[C@@H](C)[C@@H](O)[C@@H](C)[C@H](OC(C)=O)[C@@H]1C [Rifapentine, rifapentine] | + | − | − | − | − |  |
| CO[C@H]1/C=C/O[C@@]2(C)Oc3c(C)c(O)c4c(O)c(c5c(nc6cc(C)ccn65)c4c3C2=O)NC(=O)/C(C)=C\C=C\[C@H](C)[C@H](O)[C@@H](C)[C@@H](O)[C@@H](C)[C@H](OC(C)=O)[C@@H]1C [Rifaximin, rifaximin] | + | − | − | − | − |  |
| O=C(O)c1cn(-c2ccc(F)cc2)c2cc(N3CCNCC3)c(F)cc2c1=O [Sarafloxacin, sarafloxacin] | + | − | − | − | − |  |
| N[C@@H]1CN(c2c(F)cc3c(=O)c(C(=O)O)cn([C@@H]4C[C@@H]4F)c3c2Cl)CC12CC2 [Sitafloxacin, sitafloxacin] | + | − | − | − | − |  |
| C[C@@H]1CN(c2c(F)c(N)c3c(=O)c(C(=O)O)cn(C4CC4)c3c2F)C[C@H](C)N1 [Sparfloxacin, sparfloxacin] | + | − | − | − | − |  |
| COc1c(N2CCNC(C)C2)c(F)cc2c(=O)c(C(=O)O)cn(C3CC3)c12 (stereo not shown) [gatifloxacin] |  |  |  |  |  | isolates displaying resistance (MRSA keratitis isolates): ~45.9% |
| Cc1cc(NS(=O)(=O)c2ccc(N)cc2)no1 [sulfamethoxazole] |  |  |  |  |  | isolates displaying resistance (MRSA keratitis isolates): 5.7% |
| gentamycin |  |  |  |  |  | Minimum Inhibitory Concentration (P. aeruginosa [1]; [3]): 0.24 µg/mL; Minimum Inhibitory Concentration (P. aeruginosa [1]; [4]): 0.24 µg/mL; Minimum Inhibitory Concentration (P. aeruginosa [1]; [5]): 0.12 µg/mL; Minimum Inhibitory Concentration (P. aeruginosa [1]; [6]): 0.48 µg/mL; Minimum Inhibitory Concentration (P. aeruginosa [1]; [7]): 0.48 µg/mL; Minimum Inhibitory Concentration (P. aeruginosa [1]; [8]): 0.48 µg/mL; Minimum Inhibitory Concentration (P. aeruginosa [1]; [9]): 0.24 µg/mL |
| neomycin |  |  |  |  |  | Minimum Inhibitory Concentration (P. aeruginosa [1]; [3]): 9.8 µg/mL; Minimum Inhibitory Concentration (P. aeruginosa [1]; [4]): 9.8 µg/mL; Minimum Inhibitory Concentration (P. aeruginosa [1]; [5]): 9.8 µg/mL; Minimum Inhibitory Concentration (P. aeruginosa [1]; [6]): 19.6 µg/mL; Minimum Inhibitory Concentration (P. aeruginosa [1]; [7]): 1 µg/mL; Minimum Inhibitory Concentration (P. aeruginosa [1]; [8]): 9.8 µg/mL; Minimum Inhibitory Concentration (P. aeruginosa [1]; [9]): 1 µg/mL |
